Measured values reported in patent publication US8318725B2, “Aryl indolyl sulfonamide compounds and their use as 5-HT6 ligands” (Suven Life Sciences Limited, priority 2008, dated 2012).
Read-outs that look alike come from different tables or passages of the source.

Assays:
Human 5-HT6 receptor = biological target: T1, Human 5-HT6 receptor (Homo sapiens, UniProt P50406); test: Binding assay for human 5-HT6 receptor ([3H] LSD radioligand); settings: [3H] LSD 1.5 nM, human recombinant receptor in HEK293 cells
T1 construct: expressed in transfected cells; host or cells: HEK293
T1 sequence (P50406 whole entry): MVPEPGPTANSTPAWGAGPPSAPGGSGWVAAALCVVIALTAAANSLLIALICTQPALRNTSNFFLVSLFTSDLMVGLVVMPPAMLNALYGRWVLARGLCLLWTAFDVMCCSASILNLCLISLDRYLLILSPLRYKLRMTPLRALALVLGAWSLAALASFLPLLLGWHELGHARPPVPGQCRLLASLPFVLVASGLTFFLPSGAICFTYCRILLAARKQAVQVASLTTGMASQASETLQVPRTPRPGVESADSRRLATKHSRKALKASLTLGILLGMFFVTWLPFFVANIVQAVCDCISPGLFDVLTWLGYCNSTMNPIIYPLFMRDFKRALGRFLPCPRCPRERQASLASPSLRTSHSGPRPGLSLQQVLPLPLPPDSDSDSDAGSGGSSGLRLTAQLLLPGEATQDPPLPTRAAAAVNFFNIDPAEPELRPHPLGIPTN
Description: Binding Assay for Human 5-HT6 Receptor
Compounds can be tested according to the following the procedures. Materials and Methods:
Receptor source: Human recombinant expressed in HEK293 cells
Radioligand: [^3H] LSD (60-80 Ci/mmol)
Final ligand concentration—[1.5 nM]
Non-specific determinant: Methiothepin mesylate—[0.1 μM]
Reference compound: Methiothepin mesylate
Positive control: Methiothepin mesylate
Reactions were carried out in […] TRIS-HCl (pH 7.4) containing 10 μM MgCl2, 0.5 mM EDTA for 60 minutes at 37° C. The reaction was terminated by rapid vacuum filtration onto glass fiber filters. Radioactivity trapped onto the filters was determined and compared to control values in order to ascertain any interactions of test compound(s) with the cloned serotonin 5-HT6binding site.
Literature Reference: Monsma F. J. Jr., et al., Molecular Cloning and Expression of Novel Serotonin Receptor with High Affinity for Tricyclic Psychotropic Drugs. Mol. Pharmacol. (43): 320-327 (1993).

rats = test: Water maze, scopolamine induced reversal; type: in vivo
Description: The water maze apparatus consisted of a circular pool (1.8 m diameter, 0.6 m high) constructed in black Perspex (TSE systems, Germany) filled with water (24±2° C.) and positioned underneath a wide-angled video camera to track animal. The 10 cm^2 perspex platform, lying 1 cm below the water surface, was placed in the centre of one of the four imaginary quadrants, which remained constant for all rats. The black Perspex used in the construction of the maze and platform offered no intramaze cues to guide escape behavior. By contrast, the training room offered several strong extramaze visual cues to aid the formation of the spatial map necessary for escape, learning. An automated tracking system, [Videomot 2 (5.51), TSE systems, Germany] was employed. This program analyzes video images acquired via a digital camera and an image acquisition board that determined path length, swim speed and the number of dutation of swim time spent in each quadrant of the water maze.

Male Wister rats = test: Object recognition task model (NORT); type: in vivo; settings: for NORT Discriminative Index (DI), treatment: p.o., vehicle value in brackets; for NORT Inference: at the dose tested (10 or 30 mg/kg, p.o.)
Description: Object Recognition Task Model
The cognition-enhancing properties of compounds of this invention were estimated using a model of animal cognition: the object recognition task model.
Male Wister rats (230-280 grams) obtained from N. I. N. (National Institute of Nutrition, Hyderabad, India) were used as experimental animals. Four animals were housed in each cage. Animals were kept on 20% food deprivation before one day and given water ad libitum throughout the experiment and-maintained on a 12 hours light/dark cycle. Also the rats were habituated to individual arenas for 1 hour in the absence of any objects.
One group of 12 rats received vehicle (1 mL/Kg) orally and another set of animals received compound of the formula (I) either orally or i.p., before one hour of the familiar (T1) and choice trial (T2).
The experiment was carried out in a 50×50×50 cm open field made up of acrylic. In the familiarilation phase, (T1), the rats were placed individually in the open field for 3 minutes, in which two identical objects (plastic bottles, 12.5 cm height×5.5 cm diameter) covered in yellow masking tape alone (a1 and a2) were positioned in two adjacent corners, 10 cm. from the walls. After 24 hours of the (T1) trial for long-term memory test, the same rats were placed in the same arena as they were, placed in T1 trial. Choice phase (T2) rats were allowed to explore the open field for 3 minutes in presence of one familiar object (a3) and one novel object (b) (Amber color glass'bottle, 12 cm high and 5 cm in diameter). Familiar objects presented similar textures, colors and sizes. During the T1 and T2 trial, explorations of each object (defined as sniffing, licking, chewing or having moving vibrissae whilst directing the nose towards the object at a distance of less than 1 cm) were recorded separately by stopwatch. Sitting on an object was not regarded as exploratory activity, however, it was rarely observed. T1 is the total time spent exploring the familiar objects (a1+a2). T2 is the total time spent exploring the familiar object and novel object (a3+b).
The object recognition test was performed as described by Ennaceur, A., Delacour, J., 1988, A new one-trial test for neurobiological studies of memory in rats—Behavioral data, Behay. Brain Res., 31, 47-59.
Some representative compounds have shown positive effects indicating the increased novel object recognition viz; increased exploration time with novel object and higher discrimination index.

[1] = Rodent brain penetration study; type: in vivo, Male Wister rats; settings: brain homogenate and plasma; Wistar/Male rat, 10 mg/kg, water, Oral (as in table); read-out: Steady State Brain Penetration (Cb/Cp)
[2] = Rodent pharmacokinetic study; type: in vivo, Male wistar rats; settings: plasma, Wistar/Male rat, 10 mg/kg; for bioavailability: oral vs intravenous, read-out: Bioavailab; for Cmax / Tmax / half-life / AUC: water; for AUC: read-out: AUC1
Description: Rodent Pharmacokinetic Study Male wistar rats (230-280 grams) obtained from NIN (National Institute of Nutrition, Hyderabad, India) were used as an experimental animal. Three to five animals were housed in each cage. Animals were kept fasted over night and maintained on a 12 hours light/dark cycle. Three rats were dosed NCE (10 mg/Kg) orally and intravenously on day 0 and day 2. At each time point blood was collected by jugular vein. Plasma was stored frozen at −20° C. until analysis. The concentrations of the NCE compound in plasma were determined using LC-MS/MS method. Schedule time points: Pre dose 0.25, 0.5, 1, 1.5, 2, 3, 4, 6, 8, 10, 12 and 24 hours after dosing (n=3). The NCE compounds were quantified in plasma by validated LC-MS/MS method using solid phase extraction technique. NCE compounds were quantified in the calibration range of 2-2000 ng/mL in plasma. Study samples were analyzed using calibration samples in the batch and quality control samples spread across the batch. Pharmacokinetic parameters Cmax, Tmax, AUCt, AUCinf, half life, volume of distribution, clearance, mean residence time and thereby oral bioavailability were calculated by non-compartmental model using software WinNonlin version 5.1.

[3] = tested on: animal models for schizophrenia; settings: literature statement; cited from earlier work
5-HT6 receptor = settings: literature statement; cited from earlier work

Ki (Human 5-HT6 receptor) [nM]	Kp [1]	bioavailability [2] [%]	Cmax ([2]; Intravenous) [ng/mL]	Tmax ([2]; Intravenous) [h]	half-life ([2]; Intravenous) [h]	AUC ([2]; Intravenous) [ng·h/mL]	Cmax ([2]; Oral) [ng/mL]	Tmax ([2]; Oral) [h]	half-life ([2]; Oral) [h]	AUC ([2]; Oral) [ng·h/mL]	melting point [°C]	Structure (SMILES)	Scopolamine Induced Reversal (rats)	NORT Inference (Male Wister rats)	other results
1.91	–	–	–	–	–	–	–	–	–	–	–	CN1CCN(Cc2cccc(S(=O)(=O)n3ccc4ccccc43)c2)CC1 [Example 8, 1-[3-(4-Methylpiperazin-1-ylmethyl)benzenesulfonyl]-1H-indole]	≧30 mg/kg, p.o	Active	NORT Discriminative Index (DI), treatment (Male Wister rats; 10 mg/kg): 0.58 (0.45)
7.01	2.03 ± 0.42	30 ± 7	4320 ± 1680	0.08	2.69 ± 1.51	5130 ± 1750	1380 ± 427	0.38 ± 0.18	7.85 ± 2.62	3190 ± 1750	–	Cc1ccc(S(=O)(=O)n2ccc3ccccc32)cc1CN1CCN(C)CC1.Cl.Cl [Example 22, 1-[4-methyl-3-(4-methylpiperazin-1-ylmethyl)benzenesulfonyl]-1H-indole dihydrochloride]	>30 mg/kg, p.o	Active	NORT Discriminative Index (DI), treatment (Male Wister rats; 10 mg/kg): 0.57 (0.54)
3.96	0.53 ± 0.13	14 ± 10	4680 ± 617	0.08	6.25 ± 0.35	4070 ± 888	749 ± 836	0.5 ± 0.43	3.18 ± 1.71	1170 ± 1050	250.13	CCN1CCN(Cc2cc(S(=O)(=O)n3ccc4ccccc43)ccc2C)CC1.Cl.Cl [Example 23, 1-[4-methyl-3-(4-ethylpiperazin-1-ylmethyl)benzenesulfonyl]-1H-indole dihydrochloride]	≧30 mg/kg, p.o	Active	NORT Discriminative Index (DI), treatment (Male Wister rats; 30 mg/kg): 0.58 (0.49)
5.45	1.61 ± 0.39	10 ± 6	481 ± 331	0.08	5.84 ± 2.21	808 ± 156	106 ± 1	0.38 ± 0.18	1.73 ± 0.56	342 ± 152	216.9 to 218.7	Cc1cn(S(=O)(=O)c2ccc(Cl)c(CN3CCN(C)CC3)c2)c2ccccc12.Cl.Cl [Example 35, 1-[4-Chloro-3-(4-methylpiperazin-1-ylmethyl)benzenesulfonyl]-3-methyl-1H-indole dihydrochloride]	>30 mg/kg, p.o	Active	NORT Discriminative Index (DI), treatment (Male Wister rats; 30 mg/kg): 0.63 (0.49)
–	–	–	–	–	–	–	–	–	–	–	203.4 to 206.2	CCN1CCN(Cc2cc(S(=O)(=O)n3ccc4cc(F)ccc43)ccc2C)CC1.Cl.Cl [Example 44, 1-[4-Methyl-3-(4-ethylpiperazin-1-ylmethyl)benzenesulfonyl]-5-fluoro-1H-indole dihydrochloride]	–	–	inhibition at 0.1 µM (Human 5-HT6 receptor; 100 nM test compound, read-out: % Inhibition of specific binding at 100 nM): 78.5%
–	–	–	–	–	–	–	–	–	–	–	–	COc1ccc(NS(=O)(=O)c2sc3ccc(Cl)cc3c2C)cc1N1CCNCC1 [SB-271046, 5-Chloro-N-(4-methoxy-3-piperazin-1-ylphenyl)-3-methyl-2-benzothiophenesulfonamide]	–	–	Activity in animal tests related to positive or negative symptoms of schizophrenia [3]: inactive
–	–	–	–	–	–	–	–	–	–	–	–	CN(C)CCC=C1c2ccccc2CCc2ccccc21 [amitriptyline]	–	–	Affinity for the 5-HT6 receptor (5-HT6 receptor): high affinity
–	–	–	–	–	–	–	–	–	–	–	–	CN1CCN2c3ccccc3Cc3ccccc3C2C1 (centres unmarked) [mianserin]	–	–	Affinity for the 5-HT6 receptor (5-HT6 receptor): high affinity
